{
  "source": "patent US20200179426A1",
  "about": "“METHODS OF USE FOR OENOTHEIN A AND B FROM EPILOBIUM SPECIES” (EPILOBIUM, INC., priority 2017, published 2020)",
  "key": {"[1]": {"test": "xanthine oxidase/acetaldehyde spectrophotometric free radical scavenging assay", "type": "biochemical", "experimental": "The scavenging of free super oxide radicals is quantitated spectrometrically and expressed in terms of percentage of radicals scavenged. Assays were performed with 1% (w/v) and 0.1% (w/v) dilutions of the dried extract, which yielded up to 100% scavenging activity and up to 99% scavenging activity respectively."}, "[2]": {"test_system": "hen's-egg chorioallantoic membrane (CAM)", "test": "hen's-egg chorioallantoic membrane (CAM) irritation model with 15% lactic acid as standard irritant", "conditions": "oenothein B extract at 1% (weight to volume) dilution; applied before the irritant (15% lactic acid), simulating prophylactic use", "experimental": "In the hen's-egg chorioallantoic membrane (CAM) model, in which the CAM is treated with 15% lactic acid as a standard irritant, the development of manifestations of membrane irritation were tracked and scored according to published methods for assessing irritancy. A sample of the oenothein B extract from Canadian Willow herb described in Example 1 was tested at a 1% (weight to volume) dilution for activity in the CAM model."}},
  "data": [
    {"substance": "oenothein B", "values": [
      {"measurement": "scavenging activity (percentage of superoxide radicals scavenged)", "setting": "[1]; 0.1% (w/v) dilution of the dried extract", "result": "up to 99%"},
      {"measurement": "scavenging activity (percentage of superoxide radicals scavenged)", "setting": "[1]; 1% (w/v) dilution of the dried extract", "result": "up to 100%"},
      {"measurement": "decrease in irritation", "setting": "[2]", "result": "up to 70%"}
    ]}
  ]
}
